Data from ChEMBL document CHEMBL2202968, “2-Styrylindolium based fluorescent probes visualize neurofibrillary tangles in Alzheimer's disease” (Bioorg Med Chem Lett, 2012).
Active and inactive are the calls of the source. The rule behind the calls is not given here.

Columns and labels:
[1] = Displacement of thiazine red R from amyloid beta (1 to 40) aggregate after 30 mins by fluorimetric analysis
[2] = biological target: T1, Microtubule-associated protein tau (Homo sapiens, UniProt P10636); assay: Displacement of thiazine red R from human Tau aggregate expressed in Escherichia coli after 30 mins by fluorimetric analysis
T1 sequence (P10636 whole entry): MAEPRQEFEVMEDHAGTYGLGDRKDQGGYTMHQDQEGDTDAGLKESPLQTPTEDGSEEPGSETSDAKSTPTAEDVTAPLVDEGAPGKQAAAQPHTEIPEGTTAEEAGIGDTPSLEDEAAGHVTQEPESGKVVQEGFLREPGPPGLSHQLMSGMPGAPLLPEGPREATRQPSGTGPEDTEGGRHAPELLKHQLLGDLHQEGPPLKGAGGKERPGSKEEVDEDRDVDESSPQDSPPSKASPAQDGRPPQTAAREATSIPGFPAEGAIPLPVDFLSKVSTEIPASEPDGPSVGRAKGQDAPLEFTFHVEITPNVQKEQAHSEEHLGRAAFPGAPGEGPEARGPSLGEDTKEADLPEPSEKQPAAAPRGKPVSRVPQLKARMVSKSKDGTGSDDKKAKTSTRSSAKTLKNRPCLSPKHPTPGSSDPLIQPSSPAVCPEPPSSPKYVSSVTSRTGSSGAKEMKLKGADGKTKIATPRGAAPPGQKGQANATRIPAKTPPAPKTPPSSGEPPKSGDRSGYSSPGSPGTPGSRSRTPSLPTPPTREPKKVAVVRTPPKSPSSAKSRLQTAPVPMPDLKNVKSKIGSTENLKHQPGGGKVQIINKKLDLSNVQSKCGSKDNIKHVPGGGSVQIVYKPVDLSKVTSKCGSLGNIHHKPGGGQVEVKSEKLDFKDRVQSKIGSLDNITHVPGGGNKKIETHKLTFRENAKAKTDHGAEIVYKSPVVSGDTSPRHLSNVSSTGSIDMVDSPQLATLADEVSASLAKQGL

[3] = Aqueous solubility of the compound; assay type: physicochemical; settings: buffer
[4] = biological target: Amyloid-beta precursor protein (Homo sapiens) (UniProt P05067); assay: Binding affinity to amyloid beta aggregates in Alzheimer patient hippocampus by fluorescence microscopy; assay type: tissue-based
Chain of Amyloid-beta precursor protein (Homo sapiens) (P05067 whole entry): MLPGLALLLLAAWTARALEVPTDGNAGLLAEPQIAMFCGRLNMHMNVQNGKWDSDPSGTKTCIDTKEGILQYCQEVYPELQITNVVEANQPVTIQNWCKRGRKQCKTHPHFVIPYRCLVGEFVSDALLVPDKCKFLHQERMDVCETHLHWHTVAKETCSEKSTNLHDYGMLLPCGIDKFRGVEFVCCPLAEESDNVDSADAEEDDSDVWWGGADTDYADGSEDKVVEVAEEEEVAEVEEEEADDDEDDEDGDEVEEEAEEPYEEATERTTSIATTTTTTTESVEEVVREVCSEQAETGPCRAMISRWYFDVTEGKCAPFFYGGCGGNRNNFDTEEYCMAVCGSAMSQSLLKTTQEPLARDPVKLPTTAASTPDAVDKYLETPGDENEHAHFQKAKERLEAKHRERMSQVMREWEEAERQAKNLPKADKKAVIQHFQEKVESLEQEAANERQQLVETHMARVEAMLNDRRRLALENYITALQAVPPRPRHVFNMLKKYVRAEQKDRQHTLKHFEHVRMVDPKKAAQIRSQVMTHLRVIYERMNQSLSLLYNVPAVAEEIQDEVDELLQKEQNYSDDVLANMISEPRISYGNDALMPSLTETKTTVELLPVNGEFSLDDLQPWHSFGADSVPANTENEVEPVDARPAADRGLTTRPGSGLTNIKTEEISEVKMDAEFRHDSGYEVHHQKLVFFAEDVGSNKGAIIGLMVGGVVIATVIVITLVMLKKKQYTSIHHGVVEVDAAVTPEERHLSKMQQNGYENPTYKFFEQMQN

[5] = biological target: T1, Microtubule-associated protein tau; assay: Binding affinity to Tau aggregates in Alzheimer patient hippocampus by fluorescence microscopy; assay type: tissue-based
HepG2 = assay: Cytotoxicity against human HepG2 cells after 24 hrs; assay type: cell-based; settings: HepG2, 24 h
Danio rerio [6] = species on record: Danio rerio; assay: Toxicity against Zebra fish embryo assessed as lesions up to 10 uM at 24 hrs post-fertilization by microscopic analysis; assay type: organism-based; settings: zebrafish, in vivo
[7] = Binding affinity to amyloid beta (1 to 40) aggregate
Danio rerio [8] = species on record: Danio rerio; assay: Toxicity against juvenile Zebra fish assessed as lesions in yolk sac up to 10 uM at 72 hrs post-fertilization by microscopic analysis; assay type: organism-based; settings: zebrafish, in vivo

IC50 [1] [µM]	IC50 [2] [µM]	solubility [3] [µg/mL]	Activity [4]	Activity [5]	Ki [7] [µM]	Structure (SMILES)	EC50 (HepG2) [µM]	Activity (Danio rerio [6])	Activity (Danio rerio [8])
		> 500	inactive	Active		CCN(CC)c1ccc(/C=C/C2=[N+](C)c3ccccc3C2(C)C)cc1.[I-]	8.57	Non-toxic	
	0.0051	> 500	inactive	Active		C[N+]1=C(/C=C/c2ccc(N3CCCC3)cc2)C(C)(C)c2ccccc21.[I-]	8.31	Non-toxic	
0.00137	0.00141	> 100	inactive	Active		CCCC[N+]1=C(/C=C/c2ccc(N(CC)CC)cc2)C(C)(C)c2ccccc21.[I-]	0.93	Non-toxic	Toxic
		> 500	inactive	Active		C[N+]1=C(/C=C/c2ccc(O)cc2)C(C)(C)c2ccccc21.[I-]			
		> 500	inactive	Active		COc1ccc(/C=C/C2=[N+](C)c3ccccc3C2(C)C)cc1.[I-]	10.9	Non-toxic	

The remaining lines, values behind:

Structure (SMILES)	IC50 [1] [µM]	IC50 [2] [µM]	solubility [3] [µg/mL]	Activity [4]	Activity [5]	Ki [7] [µM]	EC50 (HepG2) [µM]	Activity (Danio rerio [6])	Activity (Danio rerio [8])
CNc1ccc(-c2ccc3ccccc3n2)cc1	> 10	> 10							
CN1CCN(c2ccc(/C=C/C3=[N+](C)c4ccccc4C3(C)C)cc2)CC1.[I-]			> 500	inactive	Active				
COc1cc(/C=C/c2ccc(O)cc2)ccc1/C=C/c1ccc(O)cc1	0.14					0.0268			
CNc1ccc(-c2nc3ccc(O)cc3s2)cc1 [PITTSBURGH COMPOUND B UNLABELLED]		3.26							
CC(=C(C#N)C#N)c1ccc2cc(N(C)CCF)ccc2c1	1.47	1.63							
